Literature values as cited in publication PMC13015236 (Journal of Pharmaceutical Analysis, 2025).

Experiments:
[1] = patients
[2] = tested on: non-small cell lung cancer (NSCLC); details: NSCLC patients

Substance	objective response rate (ORR) [1]	objective response rate (ORR) [2]
atezolizumab	24%	16.2%
tiragolumab	21%	–
